Assay results reported in PMC6792352, “Limited Chemical Structural Diversity Found to Modulate Thyroid Hormone Receptor in the Tox21 Chemical Library” (Environmental Health Perspectives, 2019).
Where a name gives a salt, the structure may show the parent alone.

experiment: in vitro; settings: rat, gh3-tre-luc cells, AC50 (uM) modified / 1000

`[H]/N=C(/N)NS(=O)(=O)c1ccc(N)cc1` [Sulfaguanidine] and `CC(C)COC(=O)c1ccc(N)cc1` [Isocaine] cannot be ordered by CC50 at 24 h: > 20 µM for the first, > 50 µM for the second.

`C[C]1([Mn](=[C]=O)(=[C]=O)=[C]=O)C=CC=C1` [(Methylcyclopentadienyl)tricarbonylmanganese] and `C[C@@H](N)C(=O)c1ccccc1` [(R)-(+)-Cathinone hydrochloride] cannot be ordered by CC50 at 24 h: > 90 µM for the first, > 100 µM for the second.

`NC(=O)N/N=C/c1ccc([N+](=O)[O-])o1` [Nitrofurazone] and `O=C(Cl)c1ccc([N+](=O)[O-])cc1` [4-Nitrobenzoyl chloride] cannot be ordered by CC50 at 24 h: > 90 µM for the first, > 90 µM for the second.

Going from `CC(C)CC(C)Nc1ccc(Nc2ccccc2)cc1` (centres unmarked) [N-(1,3-Dimethylbutyl)-N'-phenyl-p-phenylenediamine] to `CC(C)c1ccccc1C(C)C` [Diisopropylbenzene], the CC50 at 24 h rises from 39 µM to 88.9 µM (2.3-fold).

`CC(C(=O)O)c1ccc(C(=O)c2cccs2)cc1` (centres unmarked) [Suprofen] and `O=C(O)c1ccc(OCCn2ccnc2)cc1` [Dazoxiben] cannot be ordered by CC50 at 24 h: > 20 µM for the first, > 50 µM for the second.

`Cc1cccn2c(=O)c(-c3nnn[nH]3)cnc12` [Pemirolast potassium] and `NC(=O)c1cccnc1` [Niacinamide] cannot be ordered by CC50 at 24 h: > 50 µM for the first, > 90 µM for the second.

`CC[C@@H](CO)NCCN[C@@H](CC)CO` [Ethambutol dihydrochloride] and `CCCCCC(CO)CCC` (centres unmarked) [2-Propyl-1-heptanol] cannot be ordered by CC50 at 24 h: > 20 µM for the first, > 90 µM for the second.

`CC(=O)O[C@H]1C[C@@H]2CC[C@@H]3[C@H](CC[C@@]4(C)[C@H]3C[C@H](N3CC[N+](C)(C)CC3)[C@@H]4OC(C)=O)[C@@]2(C)C[C@@H]1N1CC[N+](C)(C)CC1` [Pipecuronium bromide] and `CC(C)(C)NC(=O)[C@H]1CC[C@H]2[C@@H]3CC=C4C=C(C(=O)O)CC[C@]4(C)[C@H]3CC[C@]12C` [Epristeride] cannot be ordered by CC50 at 24 h: > 50 µM for the first, > 50 µM for the second.

`O=S(=O)(c1ccc(O)cc1)c1ccc(O)cc1` [4,4'-Sulfonyldiphenol] and `c1ccc(P(c2ccccc2)c2ccccc2)cc1` [Triphenylphosphine] cannot be ordered by CC50 at 24 h: > 90 µM for the first, > 90 µM for the second.

`CCCOCCO` [2-Propoxyethanol] and `CCCC(C)CO` (centres unmarked) [2-Methyl-1-pentanol] cannot be ordered by CC50 at 24 h: > 90 µM for the first, > 90 µM for the second.

`Nc1nc(N)nc(-c2cc(Cl)ccc2Cl)n1` [Irsogladine maleate] and `COc1cc(Cl)ccc1Oc1ccc(Cl)cc1Cl` [Methyl triclosan] cannot be ordered by CC50 at 24 h: > 50 µM for the first, 60.4 µM for the second.

Going from `COCCCOc1cc(C[C@@H](C[C@H](N)[C@@H](O)C[C@H](C(=O)NCC(C)(C)C(N)=O)C(C)C)C(C)C)ccc1OC` [Aliskiren hydrochloride] to `COC(=O)[C@@H](N)Cc1ccc(O)c(O)c1` [Methyl L-DOPA hydrochloride], the CC50 at 24 h falls from > 50 µM to 19.9 µM.

`CCCCCCOC(=O)CCCCC(=O)OCCCCCC` [Dihexyl hexanedioate] and `C=CCCCCCCCCOC(C)=O` [9-Decenyl acetate] cannot be ordered by CC50 at 24 h: > 90 µM for the first, > 90 µM for the second.

Compared with `IC(I)=C(I)I` [Tetraiodoethene], `N[C@H](CC(=O)O)C(=O)O` [D-Aspartic acid] is higher in CC50 at 24 h: 8.53 µM for the first, > 50 µM for the second.

`O=c1cc[nH]c(=O)[nH]1` [Uracil] and `O=C1c2ccccc2C(=O)C1(O)O` [Ninhydrin] cannot be ordered by CC50 at 24 h: > 90 µM for the first, > 90 µM for the second.

`ClCCOCCOCCCl` [1,2-Bis(2-chloroethoxy)ethane] and `CC(CCl)OC(C)CCl` (centres unmarked) [bis(2-Chloro-1-methylethyl) ether] cannot be ordered by CC50 at 24 h: > 90 µM for the first, > 90 µM for the second.

Going from `CCOC(=O)C1=C(C)NC(C)=C(C(=O)OC)C1c1cccc([N+](=O)[O-])c1` (centres unmarked) [Nitrendipine] to `CCOC(=O)C1=C(COCCN)NC(C)=C(C(=O)OC)C1c1ccccc1Cl` (centres unmarked) [Amlodipine besylate], the CC50 at 24 h falls from > 50 µM to 19.7 µM.

`Cc1ccc(C)c(C)c1` [1,2,4-Trimethylbenzene] and `Cc1c(N(C)C)c(=O)n(-c2ccccc2)n1C` [4-Dimethylaminoantipyrine] cannot be ordered by CC50 at 24 h: > 90 µM for the first, > 50 µM for the second.

`O=C(C(Cl)(Cl)Cl)C(Cl)(Cl)Cl` [Hexachloroacetone] and `COC(=O)C(Cl)C(=O)OC` [Dimethyl chloromalonate] cannot be ordered by CC50 at 24 h: > 90 µM for the first, > 50 µM for the second.

Compared with `C=C(C)C1CC=C(C)[C@@H](O)C1` (some centres unmarked) [Carveol], `C#C[C@]1(OC(C)=O)CC[C@H]2[C@@H]3CCC4=CC(=NO)CC[C@@H]4[C@H]3CC[C@@]21CC` (mixture of isomers) [Norgestimate] is lower in CC50 at 24 h: > 90 µM for the first, 30.6 µM for the second.

Compared with `NC(=O)c1nc(-c2cccc(-c3cc(F)ccc3OCC(F)(F)C(F)(F)F)c2)n[nH]1` [MK-274], `NS(=O)(=O)c1ccccc1OC(F)(F)F` [2-(Trifluoromethoxy)benzenesulfonamide] is higher in CC50 at 24 h: 53.5 µM for the first, > 90 µM for the second.

`CNN` [Methylhydrazine sulfate] and `COC(=O)C(Br)CBr` (centres unmarked) [Methyl 2,3-dibromopropionate] cannot be ordered by CC50 at 24 h: > 90 µM for the first, > 90 µM for the second.

`CCN1CCCC1CNC(=O)c1cc(S(N)(=O)=O)ccc1OC` (centres unmarked) [Sulpiride] and `CCN1CCC[C@H]1CNC(=O)c1c(OC)ccc(Br)c1OC` [Remoxipride] cannot be ordered by CC50 at 24 h: > 90 µM for the first, > 50 µM for the second.

Compared with `CNC(=O)N(c1ccccc1)c1ccccc1` [N'-Methyl-N,N-diphenylurea], `CN(C)CCCN1c2ccccc2Sc2ccccc21` [Promazine hydrochloride] is lower in CC50 at 24 h: > 90 µM for the first, 4.95 µM for the second.

Compared with `O=C(CCN1CCC(c2ccccc2)C1)c1ccc2c(c1)OCCO2` (centres unmarked) [Proroxan], `NCc1cccc(C2CCN(C(=O)c3ccc(C#Cc4ccccc4F)o3)CC2)c1` [AVE5638] is 6-fold lower in CC50 at 24 h: 38.9 µM for the first, 6.44 µM for the second.

`CN(C)CCC[C@@]1(c2ccc(F)cc2)OCc2cc(C#N)ccc21` [Escitalopram oxalate] and `CN(C)CCc1c[nH]c2ccc(Cn3cncn3)cc12` [Rizatriptan] cannot be ordered by CC50 at 24 h: > 50 µM for the first, > 50 µM for the second.

`O=S(=O)(Cl)c1ccccc1` [Benzenesulfonyl chloride] and `O=C(OCCO)c1ccccc1O` [2-Hydroxyethyl salicylate] cannot be ordered by CC50 at 24 h: > 90 µM for the first, > 50 µM for the second.

First: Clc1cc(Cl)c2c(c1)N=C1CCCCCN1C2 [1,3-dichloro-6,7,8,9,10,12-hexahydroazepino[2,1-b]quinazoline hydrochloride (1:1)]
Second: CN1CCC(=C2c3ccccc3CCc3sccc32)CC1 [Pizotyline]
The CC50 at 24 h of the first is higher: > 50 µM for the first, 10.6 µM for the second.

`NS(=O)(=O)c1cc2c(cc1C(F)(F)F)NCNS2(=O)=O` [Hydroflumethiazide] and `FC(F)(F)c1cccc(Cl)c1` [3-Chlorobenzotrifluoride] cannot be ordered by CC50 at 24 h: > 20 µM for the first, > 90 µM for the second.

Compared with `CN(C)c1ccc(N=NS(=O)(=O)O)cc1` [Fenaminosulf], `CSc1ccc(Oc2ccc(S(N)(=O)=O)cc2CN(C)C)cc1C` [UK-416244] is lower in CC50 at 24 h: > 90 µM for the first, 36.3 µM for the second.

Compared with `C/C(=C(\CCO)SS/C(CCO)=C(/C)N(C=O)Cc1cnc(C)nc1N)N(C=O)Cc1cnc(C)nc1N` [Thiamine disulfide], `Nc1nc(Cl)nc2c1ncn2[C@@H]1O[C@H](CO)[C@@H](O)[C@@H]1F` [Clofarabine] is lower in CC50 at 24 h: > 50 µM for the first, 0.263 µM for the second.

`COc1cc(NC(=O)CC(C)=O)c(OC)cc1Cl` [4'-Chloro-2',5'-dimethoxyacetoacetanilide] and `COc1ccc([C@@H]2CC(=O)c3c(O)cc(O[C@@H]4O[C@H](CO[C@@H]5O[C@@H](C)[C@H](O)[C@@H](O)[C@H]5O)[C@@H](O)[C@H](O)[C@H]4O)cc3O2)cc1OC` [Methyl hesperidin] cannot be ordered by CC50 at 24 h: > 90 µM for the first, > 90 µM for the second.

`CC1CC(=O)O1` (stereo not drawn) [beta-Butyrolactone] and `CC(=O)Nc1ccn(C2COC(COC(=O)c3ccccc3)O2)c(=O)n1` (centres unmarked) [{4-[4-(Acetylamino)-2-oxopyrimidin-1(2H)-yl]-1,3-dioxolan-2-yl}methyl benzoate] cannot be ordered by CC50 at 24 h: > 100 µM for the first, > 50 µM for the second.

Going from `CO[C@H]1/C=C/O[C@@]2(C)Oc3c(C)c(O)c4c(O)c(c(/C=N/N5CCN(C6CCCC6)CC5)c(O)c4c3C2=O)NC(=O)/C(C)=C\C=C\[C@H](C)[C@H](O)[C@@H](C)[C@@H](O)[C@@H](C)[C@H](OC(C)=O)[C@@H]1C` [Rifapentine] to `C[C@H](CCC(=O)O)[C@H]1CC[C@H]2[C@@H]3[C@H](O)C[C@@H]4C[C@H](O)CC[C@]4(C)[C@H]3C[C@H](O)[C@]12C` [Cholic acid piperazine (1:1)], the CC50 at 24 h rises from 22.8 µM to > 50 µM.

Going from `CC(=O)N[C@@H]([C@@H](O)[C@H](O)[C@H](O)CO)[C@@H](O)CC(=O)C(=O)O` [Aceneuramic acid] to `C=C1CC[C@H](O)C/C1=C/C=C1\CCC[C@]2(C)[C@@H]([C@H](C)CC[C@@H](O)C(C)(C)O)CC[C@@H]12` [24R,25-Dihydroxyvitamin D3], the CC50 at 24 h falls from > 50 µM to 23.4 µM.

Compared with `CCCCCCCC(=O)Cl` [Caprylyl chloride], `O=C(O[C@@H]1C[C@@H]2C[C@H]3C[C@H](C1)N2CC3=O)c1c[nH]c2ccccc12` [Dolasetron mesylate] is lower in CC50 at 24 h: > 90 µM for the first, 37.3 µM for the second.

`CCn1c2ccccc2c2cc([N+](=O)[O-])ccc21` [9-Ethyl-3-nitro-9H-carbazole] and `COc1ccc(C(O)(c2cncnc2)C2CC2)cc1` (centres unmarked) [Ancymidol] cannot be ordered by CC50 at 24 h: > 90 µM for the first, > 90 µM for the second.

same assay, conditions: rat, gh3-tre-luc cells, AC50 (uM) modified / 1000, Tox21_110001=Tox21_111947; viability, 1 nM T3 present, 24 h

With `CC(C)(C)OC(=O)c1ncn2c1[C@@H]1CCCN1C(=O)c1c(Br)cccc1-2` [Bretazenil] the CC50 at 24 h was > 50 µM.

same assay, conditions: rat, gh3-tre-luc cells, AC50 (uM) modified / 1000, Tox21_110001=Tox21_200667; viability, 1 nM T3 present, 24 h

In the case of `CC(Cl)C(C)Cl` (centres unmarked) [2,3-Dichlorobutane], the CC50 at 24 h is reported as > 90 µM.

same assay, conditions: rat, gh3-tre-luc cells, AC50 (uM) modified / 1000, Tox21_110001=Tox21_202217; viability, 1 nM T3 present, 24 h

With `CC[N+](=O)[O-]` [Nitroethane] the CC50 at 24 h was > 90 µM.

same assay, conditions: rat, gh3-tre-luc cells, AC50 (uM) modified / 1000, Tox21_110001=Tox21_302181; viability, 1 nM T3 present, 24 h

In the case of `OCCSSCCO` [2-Hydroxyethyl disulfide], the CC50 at 24 h is reported as > 90 µM.

same assay, conditions: rat, gh3-tre-luc cells, AC50 (uM) modified / 1000, Tox21_110001=Tox21_302342; viability, 1 nM T3 present, 24 h

In the case of `Nc1ccc(N=Nc2ccc(-c3ccc(N=Nc4c(S(=O)(=O)O)cc5cc(S(=O)(=O)O)c(N=Nc6ccccc6)c(O)c5c4N)cc3)cc2)c(N)c1` [C.I. Direct Black 38], the CC50 at 24 h is reported as > 60 µM.

same assay, conditions: rat, gh3-tre-luc cells, AC50 (uM) modified / 1000, Tox21_110001=Tox21_302658; viability, 1 nM T3 present, 24 h

In the case of `CC(=O)CCc1ccc2c(c1)OCO2` [Piperonyl acetone], the CC50 at 24 h is reported as > 90 µM.
